Data on 20 compounds can be found in patent US20260356820A1, “Pyrrolidine and Imidazolidine Based DNA Polymerase Theta Inhibitors and Use Thereof” (Thomas Jefferson University, priority 2022, published 2026).

pIC50: −log10 of the molar value. Read-outs that look alike come from different tables or passages of the source.

This test deals with T1, human Polq polymerase domain (Homo sapiens, UniProt O75417).
T1 sequence (O75417 1792-2590): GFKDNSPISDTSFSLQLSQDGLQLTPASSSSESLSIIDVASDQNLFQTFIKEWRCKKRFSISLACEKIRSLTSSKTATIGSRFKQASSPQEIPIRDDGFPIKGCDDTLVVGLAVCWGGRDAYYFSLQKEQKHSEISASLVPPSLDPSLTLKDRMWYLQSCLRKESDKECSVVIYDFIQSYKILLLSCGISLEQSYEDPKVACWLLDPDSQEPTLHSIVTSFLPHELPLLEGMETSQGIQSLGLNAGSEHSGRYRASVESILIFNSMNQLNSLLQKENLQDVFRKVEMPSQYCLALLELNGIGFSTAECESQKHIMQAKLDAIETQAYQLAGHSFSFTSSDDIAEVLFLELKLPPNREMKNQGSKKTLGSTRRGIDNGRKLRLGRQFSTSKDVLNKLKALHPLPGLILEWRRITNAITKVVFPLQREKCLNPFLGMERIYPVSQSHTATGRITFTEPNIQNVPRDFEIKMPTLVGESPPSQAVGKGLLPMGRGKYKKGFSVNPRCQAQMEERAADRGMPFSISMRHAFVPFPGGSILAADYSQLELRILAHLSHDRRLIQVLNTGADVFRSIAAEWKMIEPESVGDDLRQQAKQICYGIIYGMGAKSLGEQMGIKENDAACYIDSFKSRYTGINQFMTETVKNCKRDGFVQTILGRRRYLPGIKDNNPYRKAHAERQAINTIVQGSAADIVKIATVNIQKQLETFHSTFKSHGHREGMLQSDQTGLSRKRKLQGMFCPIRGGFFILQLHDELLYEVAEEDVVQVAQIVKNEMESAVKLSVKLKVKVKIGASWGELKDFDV
The test is described as follows: Cy5 fluorescence assay of Polq polymerase domain inhibition. It is filed as biochemical. Particulars: for IC50: 5 nM Polq polymerase domain (residues 1792-2590), 60 nM primer-template, 50 uM dNTPs, 37 °C, 18 min, read-out: IC50 (nM) Polq. How it is done:
The following Cy5 fluorescence assay was used to measure the ability of compounds to inhibit Polq polymerase domain in vitro. The fluorescent based assay was performed as follows: 60 nM of the pre-annealed primer-template containing a 5′ Cy5 fluorophore conjugated template strand (SEQ ID NO:3: 5′-/5Cy5/[…]-3′), a downstream complementary oligo conjugated with a 3′ Blackhole quencher (SEQ ID NO:4: 5′-CTAAGCTCACAGTG/3IAbRQSp/-3′) and a primer strand (SEQ ID NO:5: 5′-CTGTCCTGCATGATG-3′) was mixed with 50 uM 2′-deoxyribonucleoside triphosphates (dNTPs), 0.1 mg/mL Bovine serum albumin (BSA), 0.01% NP-40, 10% glycerol, 1 mM dithiothreitol (DTT), 10 mM MgCl2, 25 mM TrisHCl pH 7.8 in the presence of 2.5% DMSO with or without various concentrations (7-point dilution series) of Polq small molecule inhibitors represented by Formula I at 37 °C in a volume of 40 μL.

As usually defined, the pIC50 is the negative decadic logarithm of the IC50, by convention in mol/L. High values mean a low IC50, low ones a high IC50. Consider `Cc1cc(N(C)C(=O)Oc2c(N3CCNC3=O)cc(C(F)(F)F)cc2C(F)(F)F)ccc1F` [Example 28, 2-(2-oxoimidazolidin-1-yl)-4,6-bis(trifluoromethyl)phenyl N-(4-fluoro-3-methylphenyl)-N-methylcarbamate], for which the pIC50 is 5.92.

In the case of `CN(C(=O)Oc1c(N2CCNC2=O)cc(C(F)(F)F)cc1C(F)(F)F)c1ccc2ccn(C)c2n1` [Example 29, 2-(2-oxoimidazolidin-1-yl)-4,6-bis(trifluoromethyl)phenyl N-methyl-N-{1-methyl-1H-pyrrolo[2,3-b]pyridin-6-yl}carbamate], the pIC50 is 4.74.

For `CN(C(=O)Oc1c(N2CCN(CCOS(=O)(=O)NC(=O)COCCOCCOCCN)C2=O)cc(C(F)(F)F)cc1C(F)(F)F)c1ccc(F)cc1` [Example 30, 2-(3-(2-(((4-fluorophenyl)(methyl)carbamoyl)oxy)-3,5-bis(trifluoromethyl)phenyl)-2-oxoimidazolidin-1-yl)ethyl (2-(2-(2-(2-aminoehoxy)ethoxy)ethoxy)acetyl)sulfamate], the pIC50 is 8.66.

The IC50 is the concentration needed to halve the response being measured. In the case of `O=C1NCCN1c1cc(C(F)(F)F)cc(C(F)(F)F)c1OC(=O)N(c1ccc(F)cc1)C1CC1` [Example 31, 2,4-bis(trifluoromethyl)-6-(2-oxoimidazolidin-1-yl)phenyl cyclopropyl4-fluorophenylcarbamate], the IC50 came out at 31 nM.

In the case of `CN(C(=O)Oc1c(N2CCN(CCOC(F)F)C2=O)cc(C(F)(F)F)cc1C(F)(F)F)c1ccc(F)cc1` [Example 32, 2-(3-(2-(difluoromethoxy)ethyl)-2-oxoimidazolidin-1-yl)-4,6-bis(trifluoromethyl)phenyl N-(4-fluorophenyl)-N-methylcarbamate], the pIC50 was 8.64.

`CN(C(=O)Oc1c(N2CCNC2=O)cc(C(F)(F)F)cc1C(F)(F)F)c1ccccc1CC#N` [Example 33, 2,4-bis(trifluoromethyl)-6-(2-oxoimidazolidin-1-yl)phenyl 2-(cyanomethyl)phenylmethylcarbamate]: the IC50 is 590 nM.

`CN(C(=O)Oc1c(N2CCN(C3CC(O)C3)C2=O)cc(C(F)(F)F)cc1C(F)(F)F)c1ccc(F)cc1` (centres unmarked) [Example 34, 2-(3-(3-hydroxycyclobutyl)-2-oxoimidazolidin-1-yl)-4,6-bis(trifluoromethyl)phenyl (4-Fluorophenyl)(methyl)carbamate] had a pIC50 of 8.70.

`CN(C(=O)Oc1c(N2CCN(C3CCS(=O)(=O)C3)C2=O)cc(C(F)(F)F)cc1C(F)(F)F)c1ccc(F)cc1` (centres unmarked) [Example 35, 2-(3-(1,1-dioxidotetrahydrothiophen-3-yl)-2-oxoimidazolidin-1-yl)-4,6-bis(trifluoromethyl)phenyl (4-fluorophenyl)(methyl)carbamate]: the pIC50 is 8.60.

The compound `[2H]C([2H])([2H])N(C(=O)Oc1c(N2CCN(CC3(O)CNC3)C2=O)cc(C(F)(F)F)cc1C(F)(F)F)c1ccc(F)cc1` [Example 36, 2-(3-((3-hydroxyazetidin-3-yl)methyl)-2-oxoimidazolidin-1-yl)-4,6-bis(trifluoromethyl)phenyl (4-fluorophenyl)(methyl-d3)carbamate] showed a pIC50 of 8.22.

Consider `[2H]C([2H])([2H])N(C(=O)Oc1c(N2CCN(CC3(O)CNC3)C2=O)cc(C(F)(F)F)cc1C(F)(F)F)c1ccc(F)c(Cl)c1F` [Example 37, 2-(3-((3-hydroxyazetidin-3-yl)methyl)-2-oxoimidazolidin-1-yl)-4,6-bis(trifluoromethyl)phenyl (3-chloro-2,4-difluorophenyl)(methyl-d3)carbamate], for which the pIC50 is 8.57.

The compound `CN(C(=O)Oc1c(N2CCN(CC3(O)CNC3)C2=O)cc(C(F)(F)F)cc1C(F)(F)F)c1ccc(F)c(Cl)c1F` [Example 38, 2,4-bis(trifluoromethyl)-6-(3-((3-hydroxyazetidin-3-yl)methyl)-2-oxoimidazolidin-1-yl)phenyl (3-chloro-2,4-difluorophenyl)(methyl)carbamate] gave a pIC50 of 8.11.

Take `[2H]C([2H])([2H])N(C(=O)Oc1c(N2CCN(CC3(OS(N)(=O)=O)CN(C(=O)OC(C)(C)C)C3)C2=O)cc(C(F)(F)F)cc1C(F)(F)F)c1ccc(F)c(Cl)c1F` [Example 39, tert-butyl 3-((3-(2-(((3-chloro-2,4-difluorophenyl)(methyl-d3)carbamoyl)oxy)-3,5-bis(trifluoromethyl)phenyl)-2-oxoimidazolidin-1-yl)methyl)-3-(sulfamoyloxy)azetidine-1-carboxylate]: the pIC50 is 8.42.

The compound `[2H]C([2H])([2H])N(C(=O)Oc1c(N2CCN(CC(O)CN(C)C)C2=O)cc(C(F)(F)F)cc1C(F)(F)F)c1ccc(F)c(Cl)c1F` (centres unmarked) [Example 40, 2-(3-(3-(dimethylamino)-2-hydroxypropyl)-2-oxoimidazolidin-1-yl)-4,6-bis(trifluoromethyl)phenyl (3-chloro-2,4-difluorophenyl)(methyl-d3)carbamate] had a pIC50 of 8.20.

The compound `[2H]C([2H])([2H])N(C(=O)Oc1c(N2C[C@@H](O)[C@@H](O)C2)cc(C(F)(F)F)cc1C(F)(F)F)c1ccc(F)cc1` [Example 41] gave a pIC50 of 8.26.

Regarding `[2H]C([2H])([2H])N(C(=O)Oc1c(N2CCN(CCn3ccnc3)C2=O)cc(C(F)(F)F)cc1C(F)(F)F)c1ccc(F)cc1` [Example 42, 2-(3-(2-(1H-imidazol-1-yl)ethyl)-2-oxoimidazolidin-1-yl)-4,6-bis(trifluoromethyl)phenyl (4-fluorophenyl)(methyl-d3)carbamate], the pIC50 was 7.93.

`[2H]C([2H])([2H])N(C(=O)Oc1c(N2CCN(CCn3cnnc3)C2=O)cc(C(F)(F)F)cc1C(F)(F)F)c1ccc(F)cc1` [Example 43, 2-(3-(2-(4H-1,2,4-triazol-4-yl)ethyl)-2-oxoimidazolidin-1-yl)-4,6-bis(trifluoromethyl)phenyl (4-fluorophenyl)(methyl-d3)carbamate] showed a pIC50 of 8.27.

`[2H]C([2H])([2H])N(C(=O)Oc1c(N2CCN(CC(O)CNC)C2=O)cc(C(F)(F)F)cc1C(F)(F)F)c1ccc(F)c(Cl)c1F` (centres unmarked) [Example 44, 2-(3-(2-hydroxy-3-(methylamino)propyl)-2-oxoimidazolidin-1-yl)-4,6-bis(trifluoromethyl)phenyl (3-chloro-2,4-difluorophenyl)(methyl-d3)carbamate]: the pIC50 was 8.15.

On to `[2H]C([2H])([2H])N(C(=O)Oc1c(N2CCN(CC(O)CNC)C2=O)cc(C(F)(F)F)cc1C(F)(F)F)c1ccc(F)cc1` (centres unmarked) [Example 45, 2-(3-(2-hydroxy-3-(methylamino)propyl)-2-oxoimidazolidin-1-yl)-4,6-bis(trifluoromethyl)phenyl (4-fluorophenyl)(methyl-d3)carbamate], for which the IC50 came out at 6.1 nM.

As to `[2H]C([2H])([2H])N(C(=O)Oc1c(N2CCN(CC(O)CN(C)C)C2=O)cc(C(F)(F)F)cc1C(F)(F)F)c1ccc(F)cc1` (centres unmarked) [Example 46, 2-(3-(3-(dimethylamino)-2-hydroxypropyl)-2-oxoimidazolidin-1-yl)-4,6-bis(trifluoromethyl)phenyl (4-fluorophenyl)(methyl-d3)carbamate], the IC50 was determined as 5.5 nM.

In the case of `CNCC(O)CN1CCN(c2cc(C(F)(F)F)cc(C(F)(F)F)c2OC(=O)N(C)c2ccc(F)c(Cl)c2F)C1=O` (centres unmarked) [Example 47, 2-(3-(2-hydroxy-3-(methylamino)propyl)-2-oxoimidazolidin-1-yl)-4,6-bis(trifluoromethyl)phenyl (3-chloro-2,4-difluorophenyl)(methyl)carbamate], the pIC50 is 8.32.
